Results published in the supplement of paper PMC10627819.
Converted amounts (≈) assume the structure as drawn.

Legend:
B. subtilis 168 [1] = assay: fitness (endpoint OD595 vs no drug) (fraction); higher = more growth
How it was run: (§1)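 Each well of a 384-well plate received 30 µl of culture at OD595 0.01, or 55 µl for S. pneumoniae. TSB, LB Lennox or CY served as media at 37 °C. OD595 was taken every 30 min for 14 h and corrected by subtracting the first reading. Fitness is the optical density at stationary-phase entry divided by the robust mean of no-drug controls, capped at 1.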

S. pneumoniae D39V [2] = assay: as above
How it was run: as §1

B. subtilis 168 [3] = system: B. subtilis 168
S. aureus DSM 20231 [4] = system: S. aureus DSM 20231
S. aureus DSM 20231 [5] = assay: fitness (endpoint OD595 vs no drug) (fraction); higher = more growth
How it was run: as §1

S. aureus Newman [6] = assay: as above
How it was run: as §1

S. pneumoniae D39V [7] = system: S. pneumoniae D39V
S. aureus Newman [8] = system: S. aureus Newman
B. subtilis 168 [9] = assay: Bliss interaction score (quartile over a dose matrix) (fitness difference); higher = more antagonism (negative = synergy)
How it was run: (§2)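 Growth in each well was taken as OD595 at entry into stationary phase. Dividing by the plate's robust no-drug mean and capping at 1 gave fitness, and single-drug fitness was inferred from the combination data. The Bliss score, observed minus product-expected fitness, is summarised by quartiles over technical, biological and donor/recipient replicates.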

S. pneumoniae D39V [10] = assay: as above
How it was run: as §2

S. aureus DSM 20231 [11] = assay: as above
How it was run: as §2

S. aureus Newman [12] = assay: as above
How it was run: as §2
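Wherever Bliss interaction score (quartile over a dose matrix) is given: first quartile when negative (synergy) and third quartile when positive (antagonism).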

C[C@H]1c2cccc(O)c2C(=O)C2=C(O)[C@]3(O)C(=O)C(C(N)=O)=C(O)[C@@H](N(C)C)[C@@H]3[C@@H](O)[C@@H]21 [Doxycycline]
fitness
Conditions	0.0155 µg/mL	0.02 µg/mL	0.031 µg/mL	0.04 µg/mL	0.062 µg/mL	0.08 µg/mL
B. subtilis 168 [1]	–	0.876	–	0.754	–	0.457
S. pneumoniae D39V [2]	0.789	–	0.73	–	0.59	–

Conditions	MIC [µg/mL]
B. subtilis 168 [3]	0.08 (≈ 0.18 µM)
S. aureus DSM 20231 [4]	0.034 (≈ 0.0765 µM)

C[C@@H]1O[C@@H]1P(=O)(O)O [Fosfomycin]
Conditions	fitness
B. subtilis 168 [1], 1.562 µg/mL	0.712
B. subtilis 168 [1], 3.124 µg/mL	0.594
B. subtilis 168 [1], 6.248 µg/mL	0.422
S. aureus DSM 20231 [5], 0.781 µg/mL	0.875
S. aureus DSM 20231 [5], 1.562 µg/mL	0.693
S. aureus DSM 20231 [5], 3.124 µg/mL	0.535
S. aureus Newman [6], 0.781 µg/mL	0.686
S. aureus Newman [6], 1.562 µg/mL	0.485
S. aureus Newman [6], 3.124 µg/mL	0.123
S. pneumoniae D39V [2], 1.25 µg/mL	0.966
S. pneumoniae D39V [2], 2.5 µg/mL	0.895
S. pneumoniae D39V [2], 5 µg/mL	0.716

Conditions	MIC [µg/mL]
B. subtilis 168 [3]	12.5 (≈ 90.5 µM)
S. aureus DSM 20231 [4]	3.5 (≈ 25.4 µM)
S. aureus Newman [8]	3.5 (≈ 25.4 µM)
S. pneumoniae D39V [7]	6.25 (≈ 45.3 µM)

Cc1ncc([N+](=O)[O-])n1CCO [Metronidazole]
fitness
Conditions	0.625 µg/mL	0.781 µg/mL	1.25 µg/mL	1.562 µg/mL	2.5 µg/mL	3.124 µg/mL	5 µg/mL
B. subtilis 168 [1]	0.955	–	0.946	–	0.94	–	–
S. aureus DSM 20231 [5]	≥ 1	–	≥ 1	–	≥ 1	–	–
S. aureus Newman [6]	≥ 1	≥ 1	≥ 1	≥ 1	≥ 1	0.999	–
S. pneumoniae D39V [2]	–	–	≥ 1	–	≥ 1	–	0.997

Conditions	MIC [µg/mL]
B. subtilis 168 [3]	5 (≈ 29.2 µM)
S. aureus DSM 20231 [4]	3 (≈ 17.5 µM)
S. aureus Newman [8]	3 (≈ 17.5 µM)
S. pneumoniae D39V [7]	10 (≈ 58.4 µM)

Cc1ncc([N+](=O)[O-])n1CCO [Metronidazole] + CN[C@@H]1[C@H](O)[C@H](NC)[C@H]2O[C@@]3(O)C(=O)C[C@@H](C)O[C@H]3O[C@@H]2[C@H]1O [Spectinomycin]
fitness
Conditions	partner 2 µg/mL	partner 4 µg/mL	partner 8 µg/mL	partner 16 µg/mL
B. subtilis 168 [1], first compound 0.625 µg/mL	0.947	0.963	0.949	–
B. subtilis 168 [1], first compound 1.25 µg/mL	0.973	0.953	0.889	–
B. subtilis 168 [1], first compound 2.5 µg/mL	0.976	0.95	0.91	–
S. aureus DSM 20231 [5], first compound 0.625 µg/mL	–	0.973	0.944	0.887
S. aureus DSM 20231 [5], first compound 1.25 µg/mL	–	0.946	0.958	0.852
S. aureus DSM 20231 [5], first compound 2.5 µg/mL	–	0.976	≥ 1	0.924
S. aureus Newman [6], first compound 0.625 µg/mL	–	0.94	0.909	0.929
S. aureus Newman [6], first compound 0.781 µg/mL	–	0.893	0.974	0.91
S. aureus Newman [6], first compound 1.25 µg/mL	–	0.98	0.98	0.932
S. aureus Newman [6], first compound 1.562 µg/mL	–	0.93	0.998	0.928
S. aureus Newman [6], first compound 2.5 µg/mL	–	0.951	0.926	0.926
S. aureus Newman [6], first compound 3.124 µg/mL	–	0.895	0.98	0.935
S. pneumoniae D39V [2], first compound 1.073 µg/mL	–	0.94	0.976	0.909
S. pneumoniae D39V [2], first compound 2.145 µg/mL	–	0.946	0.944	0.881
S. pneumoniae D39V [2], first compound 4.29 µg/mL	–	0.901	0.9	0.878

fitness, one replicate
Conditions	first compound 0.625 µg/mL	first compound 1.25 µg/mL	first compound 2.5 µg/mL	first compound 5 µg/mL
S. aureus DSM 20231 [5], partner 32 µg/mL	0.703	0.684	0.689	–
S. aureus DSM 20231 [5], partner 64 µg/mL	0.0868	0.121	0.103	–
S. aureus Newman [6], partner 32 µg/mL	0.685	0.656	0.596	–
S. aureus Newman [6], partner 64 µg/mL	0.101	0.147	0.134	–
S. pneumoniae D39V [2], partner 4 µg/mL	–	≥ 1	≥ 1	≥ 1
S. pneumoniae D39V [2], partner 8 µg/mL	–	0.964	0.99	0.986

Conditions	Bliss interaction score
B. subtilis 168 [9]	-0.0603
S. aureus DSM 20231 [11]	0.0691
S. aureus Newman [12]	0.0758
S. pneumoniae D39V [10]	0.044
